One data set deals with whole milk folate binder (Bos taurus, UniProt P02702). Description: competitive protein binding (CPB) radioassay for folates using pteroyltyrosine [125I] as radiolabel. The settings on record: for dose response curves generated using pteroyltyrosine [125I] as label, folic acid versus N5-methyl THF: at high pH compared with lower pH; for behaviour in the folate competitive protein binding assay of radiolabel made from directly coupled p-aminobenzoyltyrosine product, compared with label from the hydrolyzed ester: pteroyltyrosine from 6-formylpterin + H-PABA-L-Tyr-OH (Example 1f(2)), radioiodinated, gel chromatography. On the procedure:
The use of the Centria® analytical system, Union Carbide Corporation, in this example, is meant to be illustrative and other methods, both automated and manual, obvious to those skilled in the clinical diagnostic art are also within the scope of this invention.
Briefly, the Centria® system is a tri-modular instrument in which reagents are pipetted on to a multiwell transfer disk and mixed centrifugally with standards or patients' samples. After a suitable incubation period, the components are separated by a centrifugal elution of the bound and free fractions and the bound fractions counted three at a time.
Folic acid and N^5 -methyltetrahydrofolic acid standards in the range 0-20 nanograms/milliliter were prepared in 0.05 M sodium borate, pH 9.3 containing 0.1% human serum albumin. The whole milk binder was prepared according to the method of Rothenberg et al., (3) and dissolved in sodium borate, pH 9.3 containing 0.1% human serum albumin.
(50 microliters, 20,000 cpm) plus 85 microliters of water with the limited number of binding sites contained in a 200 microliter solution of whole milk folate binder. The binding reactions may be shown as follows:
After a 10 minute incubation, the reaction mixture was centrifugally transferred onto DEAE Sephadex A-25 columns (0.75×4 in.) where separation of complexed folate from free folate was effected with 1.4 ml of elution buffer
(3) S. Rothenberg, M. DaCosta, and Z. Rosenberg, New Eng.
A gamma counter which counts three of the 36 positions at a time for one minute, so constructed that only the eluate bottom portion of the test tubes fits into the counter, was then used to count all samples. Sequential counting of the tubes thus required about 12 minutes. A small computer with printout capability then printed out the data after completion of the cycle.

The nature of data set [1]: storage stability of the radioiodinated product, judged by assay performance. In kind it is physicochemical. The conditions noted are these: ten-week period, stored in 50% aqueous propylene glycol solution. The text has this:
Radioiodination of biological compounds frequently leads to marked chemical instability and subsequent degradation of the radiolabel. This problem is often accentuated in the radiolabel when the materials to be radioiodinated are known to be sensitive to oxygen, light or extremes in pH, as is the case with folic acid and some derivatives.
The reaction mixture was applied to a 1×20 cm Sephadex G25, fine, (Pharmacia Fine Chemicals, Uppsala, Sweden) column hydrated with distilled water and equilibrated with 0.1 M potassium phosphate, pH 7.5. The column was eluted with 0.1 M potassium phosphate buffer and 3 ml fractions collected. The product "peak" fractions 32-34 were collected, diluted 1:1 with propylene glycol and stored below 0° C.

A further data set relates to carboxypeptidase A. Kind of data set: enzymatic hydrolysis of pteroyltyrosine followed by UV spectrophotometry. In kind it is biochemical. The conditions noted are these: two hours, ambient temperature, Tris-HCl with zinc chloride pH 7.3. On the procedure:
Two millilters of a solution of pteroyltrosine ([…]) in 0.025 M Tris-HCl containing 2 mM zinc chloride, pH 7.3 were diluted to 10 ml with distilled water. A portion of this solution (2 ml) was placed in a 1 cm cuvette and in another was placed 2 ml of distilled water. To each of the cuvettes was added 50 μl of a solution of 100 μl carboxypeptidase A suspension (Aldrich chemical, lot (060637) diluted with 0.9 ml of 10% lithium chloride.
The time course of the reaction was followed spectrophotometrically (uv) over a period of two hours at ambient temperature. An increase and shift in max from 280 to 277 nm and a marked decrease in absorption at 220 nm was observed. Two isobestic points at 242 and 282 nm were visible.

Sequence of whole milk folate binder (P02702 20-234): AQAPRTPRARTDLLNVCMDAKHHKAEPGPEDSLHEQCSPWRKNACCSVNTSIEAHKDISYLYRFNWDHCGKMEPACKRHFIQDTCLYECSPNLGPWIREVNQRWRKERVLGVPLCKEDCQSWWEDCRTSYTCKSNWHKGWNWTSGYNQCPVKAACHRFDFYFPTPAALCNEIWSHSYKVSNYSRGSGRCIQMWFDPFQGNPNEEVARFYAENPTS

`CN1c2c(O)nc(N)nc2NCC1CNc1ccc(C(=O)N[C@@H](CCC(=O)O)C(=O)O)cc1` (stereo partly shown) [N^5 -methyl THF, N-5-methyltetrahydrofolic acid, reference compound]: the “dose response curves generated using pteroyltyrosine [125I] as label, folic acid versus N5-methyl THF” value at whole milk folate binder is on record as “more nearly coincident than at lower pH”.

With `Nc1nc2ncc(CNc3ccc(C(=O)N[C@@H](CCC(=O)O)C(=O)O)cc3)nc2c(=O)[nH]1` [folic acid], the “dose response curves generated using pteroyltyrosine [125I] as label, folic acid versus N5-methyl THF” value on whole milk folate binder is on record as “more nearly coincident than at lower pH”.

Consider `Nc1nc(O)c2nc(CNc3ccc(C(=O)N[C@@H](Cc4ccc(O)c([125I])c4)C(=O)O)cc3)cnc2n1` [pteroyltyrosine [^125 I]], for which the “performance as radiolabel in CPB radioassay for folic acid” value on whole milk folate binder (folic acid concentration range 0-20 ng/ml) was “effective radiolabel”. In data set [1], the “stability of radioiodinated product (assay performance on storage)” value is reported as “no deterioration in assay performance”.

In the case of `Nc1nc2ncc(CNc3ccc(C(=O)N[C@@H](Cc4ccc(O)cc4)C(=O)O)cc3)nc2c(=O)[nH]1` [pteroyltyrosine, Pteroyl-L-Tyrosine], the “behaviour in the folate competitive protein binding assay of radiolabel made from directly coupled p-aminobenzoyltyrosine product, compared with label from the hydrolyzed ester” value was “functioned identically” at whole milk folate binder and “identically” on whole milk folate binder (listed as Pt-L-Tyr-OH). Further, the “UV spectral change on treatment with carboxypeptidase A (hydrolysis)” value in the data set on carboxypeptidase A is “final spectrum was very similar to that of pteroic acid”.

The values above are taken from patent publication US4337339A, “Process for preparation of folic acid derivatives” (Baker Instruments Corp., priority 1979, dated 1982).
